Consider 16 compounds from patent US20230089368A1, “POLYAROMATIC UREA DERIVATIVES AND THEIR USE IN THE TREATMENT OF MUSCLE DISEASES” (ANAGENESIS BIOTECHNOLOGIES S.A.S., priority 2019, published 2023).

Molecules are shown by their SMILES. Bounds are passed on as bounds.

Assay [1] has as its system satellite-like cells (Pax7-positive cells) in hMP. Put plainly: Myotube assay: Pax7-positive (satellite-like) cell quantification. Type of assay: cell-based, human. Also noted: key to Pax7% (pool of Pax7-positive cells) / Pax7: −: Depletes the pool of cells, while positively affects the myotubes; +: Maintains or increases the pool of cells, with at least 1 of the highest concentration known to be cytotoxic; ++: Maintains or increases the pool of cells, without any toxicity. Particulars: myotube assay, compounds incubated 3 days. The text has this: (§1) The efficacy of said compound for use in treating, ameliorating, delaying, curing and/or preventing a disease or condition associated with muscle cells and/or satellite cells is positively correlated with the generation of myotubes (i.e. the increase of the area occupied by myotubes on the assay) and/or satellite cells (i.e. the increase of the number of satellite cells) in the assay after adding said compound. The generation of myotubes by the addition of said compound is expressed as the EC50 value, the concentration of said compound that corresponds with the half-maximal generation of myotubes, and the MA (normalized myotube area) value, the normalized area occupied by generated myotubes on the assay. […] Since muscle cells are formed from myotubes during myogenesis, the generation of myotubes in the assay is a good indicator of the ability of said compound to induce the formation of functional muscle cells in vivo. The number of satellite cells is measured as the percentage of Pax7 positive cells, relative to the total number of cells in the assay, as shown in FIG. 3. The percentage of Pax7 is a good indicator of the ability of said compound to induce the formation of satellite cells which are able to play a role in muscle repair and regeneration in vivo.
(§2) DMD human induced pluripotent stem cells (hereafter “DMD hiPSC”), generated from the NORM-1 hiPSC WT cell line by gene editing, or WT human induced pluripotent stem cells (hereafter “WT hiPSC”), being NORM-1 hiPSC wt cell line, have been differentiated according to Chal et al. 2015, 2016, to produce muscle progenitors (hereafter “hMP”). The hMP population contains satellite-like cells (i.e Pax7-positive cells) and satellite cells' progenies (i.e. Myogenin-positive cells).
(§3) FIG. 1 provides an example of a Myotube assay workflow. At day 0, hMP are thawed and 3.1 million cells are plated into a T75-flask coated with hESC-qualified Matrigel™ (Corning) in SkGM proliferating medium (PromoCells), supplemented with 5 μM Y-27632 (Tocris Bioscience). On day 2, SkGM proliferating medium is refreshed. On day 4, hMP are harvested and transferred into a 384-well plate coated with collagen type I at a density of 3500 cells/well in a DMEM-based medium, containing 5% of knockout serum replacement (Gibco), 1% PenStrep (Gibco), 1% MEM NEAA (Gibco) and 0.1 mM 2-mercaptoethanol (Gibco) (hereafter “K5 medium”) and 5 μM Y-27632. Compounds to be tested are then added in the medium and incubated for 3 days at 37° C. On day 7, cells are fixed and immunostained. For example, myotubes (alpha-actinin staining) and satellite-like (Pax7 staining) cells can be analyzed for total myotube area per well or Pax7-positive cell quantification.
DMD hMP were put in the Myotube assay according to the workflow described in Example 2.1. In particular, compound (i) was added at concentrations ranging from 1.5 nM to 30 μM, starting from day 4. hMP were cultivated for three more days in presence of compound (i), then fixed and analyzed for percentage of Pax7-positive cells and nuclei number. Duplicates of each condition were averaged.
(−): Depletes the pool of cells, while positively affects the myotubes; (+): Maintains or increases the pool of cells, with at least 1 of the highest concentration known to be cytotoxic; and (++) Maintains or increases the pool of cells, without any toxicity.

Assay [2] relates to muscle progenitors (hMP) from DMD hiPSC or WT hiPSC. Put plainly: Myotube assay: myogenic activity (total myotube area per well). Type of assay: cell-based, human. The following applies: Homo sapiens, 72 h, myotube assay, compounds incubated 3 days; for Emax: read-out: MA (normalized Myotube Area, efficacy); for EC50: 10 points dose-response 1.5 nM to 30 μM, read-out: EC50 (myogenic activity, half-maximal generation of myotubes). As to the method:
An in vitro assay for assessing the efficacy of compounds for use in treating, ameliorating, delaying, curing and/or preventing a disease or condition associated with muscle cells and/or satellite cells is described in example 78. Herein, the generation of myotubes and satellite cells after adding a compound to a myotube assay workflow is assessed. Said myotube assay workflow is derived from wild-type or DMD human induced pluripotent stem cells (WT hiPSC or DMD hiPSC). Before the addition of said compound, the assay comprises satellite-like cells, but no significant amount of myotubes.
as §1, §2, §3
DMD hMP were put in the Myotube assay according to the workflow described in Example 2.1. In particular, compound (i) was added at concentrations ranging from 1.5 nM to 30 μM, starting from day 4. hMP were cultivated for three more days in presence of compound (i), then fixed and analyzed for quantification of total myotube area per well. Duplicates of each condition were averaged.
Qualitative scale: ++++: EC50<500 nM; +++: 500 nM≤EC50<1000 nM; ++: 1000 nM≤EC50<5000 nM; +: EC50≥5000 nM; +++: MA≥75%; ++: 50%≤MA<75%; +: 25%≤MA<50%.

On to `CSc1cc(Oc2ccnc3[nH]c(=O)cnc23)ccc1NC(=O)Nc1cc(C(C)(C)C)nn1-c1ccccn1` [(ar), 1-(3-(tert-butyl)-1-(pyridin-2-yl)-1H-pyrazol-5-yl)-3-(2-(methylthio)-4-((3-oxo-3,4-dihydropyrido[2,3-b]pyrazin-8-yl)oxy)phenyl)urea], for which, in assay [1], the “Pax7% (pool of Pax7-positive cells)” value is given as “++”. In addition, in assay [2], the Emax is not below 75%.

`CSc1cc(Oc2ccnc3[nH]c(=O)cnc23)ccc1NC(=O)Nc1cc(C(C)(C)C)nn1-c1cccc(Cl)c1` [(as), 1-(3-(tert-butyl)-1-(3-chlorophenyl)-1H-pyrazol-5-yl)-3-(2-(methylthio)-4-((3-oxo-3,4-dihydropyrido[2,3-b]pyrazin-8-yl)oxy)phenyl)urea]: the “Pax7% (pool of Pax7-positive cells)” value in assay [1] is “+”. The Emax in assay [2] is not below 75%.

As to `CSc1cc(Oc2ccnc3[nH]c(=O)cnc23)ccc1NC(=O)Nc1cc(C(C)(C)C)nn1-c1ccccc1Cl` [(at), 1-(3-(tert-butyl)-1-(2-chlorophenyl)-1H-pyrazol-5-yl)-3-(2-(methylthio)-4-((3-oxo-3,4-dihydropyrido[2,3-b]pyrazin-8-yl)oxy)phenyl)urea], the “Pax7% (pool of Pax7-positive cells)” value in assay [1] is given as “++”. Moreover, in assay [2], the Emax is not below 75%.

Consider `CSc1cc(Oc2ccnc3c2ncc(=O)n3C)ccc1NC(=O)Nc1cc(C(C)(C)C)nn1-c1ccccc1` [(au), 1-(3-(tert-butyl)-1-phenyl-1H-pyrazol-5-yl)-3-(4-((4-methyl-3-oxo-3,4-dihydropyrido[2,3-b]pyrazin-8-yl)oxy)-2-(methylthio)phenyl)urea], for which the “Pax7% (pool of Pax7-positive cells)” value in assay [1] is “++”. Also, the Emax in assay [2] is not below 75%.

`COc1ccccc1-n1nc(C(C)(C)C)cc1NC(=O)Nc1ccc(Oc2ccnc3[nH]c(=O)cnc23)cc1SC` [(av), 1-(3-(tert-butyl)-1-(2-methoxyphenyl)-1H-pyrazol-5-yl)-3-(2-(methylthio)-4-((3-oxo-3,4-dihydropyrido[2,3-b]pyrazin-8-yl)oxy)phenyl)urea]: in assay [1], the “Pax7% (pool of Pax7-positive cells)” value is “++”. Also, in assay [2], the EC50 was not below 5 µM and the Emax was not below 75%.

`COc1cccc(-n2nc(C(C)(C)C)cc2NC(=O)Nc2ccc(Oc3ccnc4[nH]c(=O)cnc34)cc2SC)c1` [(aw), 1-(3-(tert-butyl)-1-(3-methoxyphenyl)-1H-pyrazol-5-yl)-3-(2-(methylthio)-4-((3-oxo-3,4-dihydropyrido[2,3-b]pyrazin-8-yl)oxy)phenyl)urea]: the “Pax7% (pool of Pax7-positive cells)” value in assay [1] is given as “+”. Besides, the Emax in assay [2] is not below 75%.

Consider `CSc1cc(Oc2ccnc3[nH]c(=O)cnc23)ccc1NC(=O)Nc1nc(-c2ccc(F)c(F)c2)cs1` [(ax), 1-(4-(3,4-difluorophenyl)thiazol-2-yl)-3-(2-(methylthio)-4-((3-oxo-3,4-dihydropyrido[2,3-b]pyrazin-8-yl)oxy)phenyl)urea], for which the “Pax7% (pool of Pax7-positive cells)” value in assay [1] is recorded as “++”. Moreover, the Emax in assay [2] is 50 to 75%.

`CSc1cc(Oc2ccnc3[nH]c(=O)cnc23)ccc1NC(=O)Nc1nnc(-c2ccccc2)s1` [(ay), 1-(2-(methylthio)-4-((3-oxo-3,4-dihydropyrido[2,3-b]pyrazin-8-yl)oxy)phenyl)-3-(5-phenyl-1,3,4-thiadiazol-2-yl)urea]: the “Pax7% (pool of Pax7-positive cells)” value in assay [1] is given as “++”. Besides, in assay [2], the EC50 is 1 to 5 µM and the Emax was not below 75%.

With `Cc1ccc(-n2nc(C(C)(C)C)cc2NC(=O)Nc2ccc(Oc3ccnc4[nH]c(=O)cnc34)cc2C(F)(F)F)cc1` [(az), 1-(3-(tert-butyl)-1-(p-tolyl)-1H-pyrazol-5-yl)-3-(4-((3-oxo-3,4-dihydropyrido[2,3-b]pyrazin-8-yl)oxy)-2-(trifluoromethyl)phenyl)urea], in assay [1], the “Pax7% (pool of Pax7-positive cells)” value is “++”. Besides, in assay [2], the Emax was not below 75%.

For the compound `CC(C)c1cc(NC(=O)Nc2ccc(Oc3ccnc4[nH]c(=O)cnc34)cc2F)n(-c2ccccc2)n1` [(b), 1-(2-fluoro-4-((3-oxo-3,4-dihydropyrido[2,3-b]pyrazin-8-yl)oxy)phenyl)-3-(3-isopropyl-1-phenyl-1H-pyrazol-5-yl)urea], in assay [1], the “Pax7% (pool of Pax7-positive cells)” value is reported as “++”. In assay [2], the Emax fell in the range of 25 to 50%.

With `CC(C)(C)c1cnc(NC(=O)Nc2ccc(Oc3ccnc4[nH]c(=O)cnc34)c3ccccc23)s1` [(ba), 1-(5-(tert-butyl)thiazol-2-yl)-3-(4-((3-oxo-3,4-dihydropyrido[2,3-b]pyrazin-8-yl)oxy)naphthalen-1-yl)urea], the “Pax7% (pool of Pax7-positive cells)” value in assay [1] was “++”. The Emax in assay [2] was not below 75%.

In the case of `CC(C)(C)c1cc(NC(=O)Nc2ccc(Oc3ccnc4[nH]c(=O)cnc34)c3ccccc23)n(-c2ccc3ncccc3c2)n1` [(bb), 1-(3-(tert-butyl)-1-(quinolin-6-yl)-1H-pyrazol-5-yl)-3-(4-((3-oxo-3,4-dihydropyrido[2,3-b]pyrazin-8-yl)oxy)naphthalen-1-yl)urea], the “Pax7% (pool of Pax7-positive cells)” value in assay [1] is “+”. Besides, in assay [2], the Emax is not below 75%.

With `COc1cc(Oc2ccnc3[nH]c(=O)cnc23)ccc1NC(=O)Nc1cc(C(C)(C)C)nn1-c1ccccc1` [(bc), 1-(3-(tert-butyl)-1-phenyl-1H-pyrazol-5-yl)-3-(2-methoxy-4-((3-oxo-3,4-dihydropyrido[2,3-b]pyrazin-8-yl)oxy)phenyl)urea], the “Pax7% (pool of Pax7-positive cells)” value in assay [1] is on record as “++”. In assay [2], the EC50 fell in the range of 1 to 5 µM and the Emax is not below 75%.

For the compound `CSc1cc(Oc2ccnc3[nH]c(=O)cnc23)ccc1NC(=O)Nc1cc(C(C)(C)C)nn1-c1ccc(C)nc1` [(bd), 1-(3-(tert-butyl)-1-(6-methylpyridin-3-yl)-1H-pyrazol-5-yl)-3-(2-(methylthio)-4-((3-oxo-3,4-dihydropyrido[2,3-b]pyrazin-8-yl)oxy)phenyl)urea], the “Pax7% (pool of Pax7-positive cells)” value in assay [1] is on record as “+”. Moreover, the Emax in assay [2] was not below 75%.

For the compound `CSc1cc(Oc2ccnc3c2CCCN3)ccc1NC(=O)Nc1cc(C(C)(C)C)nn1-c1ccccc1` [(be), 1-(3-(tert-butyl)-1-phenyl-1H-pyrazol-5-yl)-3-(2-(methylthio)-4-((5,6,7,8-tetrahydro-1,8-naphthyridin-4-yl)oxy)phenyl)urea], the “Pax7% (pool of Pax7-positive cells)” value in assay [1] is “++”. Besides, in assay [2], the EC50 is 0.5 to 1 µM and the Emax is not below 75%.

As to `CNC(=O)c1cc(Oc2ccc(NC(=O)Nc3cc(C(C)(C)C)nn3-c3ccc4ncccc4c3)c3ccccc23)ccn1` [(bf), 4-((4-(3-(3-(tert-butyl)-1-(quinolin-6-yl)-1H-pyrazol-5-yl)ureido)naphthalen-1-yl)oxy)-N-methylpicolinamide], the “Pax7% (pool of Pax7-positive cells)” value in assay [1] was “+”. For the same compound, the Emax in assay [2] was not below 75%.
